Measured values published in ChEMBL document CHEMBL5038625, “Application of the dual-tail approach for the design and synthesis of novel Thiopyrimidine-Benzenesulfonamide hybrids as selective carbonic anhydrase inhibitors” (Eur J Med Chem, 2022).
pIC50, pKi: −log10 of the molar value.

Columns and labels:
CAKI-1 = assay: Antiproliferative activity against human CAKI-1 cells assessed as cell growth inhibition at 10 uM incubated for 24 hrs by sulforhodamine B assay; type: functional; conditions: read-out: GI
MDA-MB-231 [1] = assay: Antiproliferative activity against human MDA-MB-231 cells assessed as cell growth inhibition at 10 uM incubated for 24 hrs by sulforhodamine B assay; type: functional; conditions: read-out: GI
MDA-MB-231 [2] = assay: Antiproliferative activity against human MDA-MB-231 cells assessed as reduction in cell viability incubated for 24 hrs by sulforhodamine B assay; type: functional, cell-based; conditions: MDA-MB-231, 24 h
NCI-H226 = assay: Antiproliferative activity against human NCI-H226 cells assessed as cell growth inhibition at 10 uM incubated for 24 hrs by sulforhodamine B assay; type: functional; conditions: read-out: GI
SR = assay: Antiproliferative activity against human SR cells assessed as cell growth inhibition at 10 uM incubated for 24 hrs by sulforhodamine B assay; type: functional; conditions: read-out: GI
Carbonic anhydrase 9 = Carbonic anhydrase 9 (Homo sapiens, UniProt Q16790); assay: Inhibition of human CA9 preincubated for 15 mins by phenol red dye based stopped flow CO2 hydration assay
UO-31 = assay: Antiproliferative activity against human UO-31 cells assessed as cell growth inhibition at 10 uM incubated for 24 hrs by sulforhodamine B assay; type: functional; conditions: read-out: GI
SF-539 = assay: Antiproliferative activity against human SF-539 cells assessed as cell growth inhibition at 10 uM incubated for 24 hrs by sulforhodamine B assay; type: functional; conditions: read-out: GI
K562 = assay: Antiproliferative activity against human K562 cells assessed as cell growth inhibition at 10 uM incubated for 24 hrs by sulforhodamine B assay; type: functional; conditions: read-out: GI
NCI-H522 = assay: Antiproliferative activity against human NCI-H522 cells assessed as cell growth inhibition at 10 uM incubated for 24 hrs by sulforhodamine B assay; type: functional; conditions: read-out: GI
T47D [3] = assay: Antiproliferative activity against human T47D cells assessed as reduction in cell viability incubated for 24 hrs by sulforhodamine B assay; type: functional, cell-based
MCF7 [4] = assay: Antiproliferative activity against human MCF7 cells assessed as reduction in cell viability incubated for 24 hrs by sulforhodamine B assay; type: functional, cell-based; conditions: MCF7, 24 h
UACC-62 = assay: Antiproliferative activity against human UACC-62 cells assessed as cell growth inhibition at 10 uM incubated for 24 hrs by sulforhodamine B assay; type: functional; conditions: read-out: GI
Carbonic anhydrase 1 = Carbonic anhydrase 1 (Homo sapiens, UniProt P00915); assay: Inhibition of human CA1 preincubated for 15 mins by phenol red dye based stopped flow CO2 hydration assay
Sequence of Carbonic anhydrase 1 (P00915 whole entry): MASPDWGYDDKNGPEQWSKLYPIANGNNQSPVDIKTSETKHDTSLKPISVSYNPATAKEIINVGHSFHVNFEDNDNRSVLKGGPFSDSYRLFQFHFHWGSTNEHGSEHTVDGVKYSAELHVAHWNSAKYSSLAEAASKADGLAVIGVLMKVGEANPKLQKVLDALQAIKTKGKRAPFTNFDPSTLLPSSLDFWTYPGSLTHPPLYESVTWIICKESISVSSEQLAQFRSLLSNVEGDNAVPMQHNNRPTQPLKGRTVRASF

A549 = assay: Antiproliferative activity against human A549 cells assessed as cell growth inhibition at 10 uM incubated for 24 hrs by sulforhodamine B assay; type: functional; conditions: read-out: GI
HCT-15 = assay: Antiproliferative activity against human HCT-15 cells assessed as cell growth inhibition at 10 uM incubated for 24 hrs by sulforhodamine B assay; type: functional; conditions: read-out: GI
RPMI-8226 = assay: Antiproliferative activity against human RPMI-8226 cells assessed as cell growth inhibition at 10 uM incubated for 24 hrs by sulforhodamine B assay; type: functional; conditions: read-out: GI
Carbonic anhydrase 2 = Carbonic anhydrase 2 (Homo sapiens, UniProt P00918); assay: Inhibition of human CA2 preincubated for 15 mins by phenol red dye based stopped flow CO2 hydration assay
Malme-3M = assay: Antiproliferative activity against human Malme-3M cells assessed as cell growth inhibition at 10 uM incubated for 24 hrs by sulforhodamine B assay; type: functional; conditions: read-out: GI
U-251 = assay: Antiproliferative activity against human U-251 cells assessed as cell growth inhibition at 10 uM incubated for 24 hrs by sulforhodamine B assay; type: functional; conditions: read-out: GI
OVCAR-4 = assay: Antiproliferative activity against human OVCAR-4 cells assessed as cell growth inhibition at 10 uM incubated for 24 hrs by sulforhodamine B assay; type: functional; conditions: read-out: GI
MOLT-4 = assay: Antiproliferative activity against human MOLT-4 cells assessed as cell growth inhibition at 10 uM incubated for 24 hrs by sulforhodamine B assay; type: functional; conditions: read-out: GI
KM12 = assay: Antiproliferative activity against human KM12 cells assessed as cell growth inhibition at 10 uM incubated for 24 hrs by sulforhodamine B assay; type: functional; conditions: read-out: GI
CCRF-CEM = assay: Antiproliferative activity against human CCRF-CEM cells assessed as cell growth inhibition at 10 uM incubated for 24 hrs by sulforhodamine B assay; type: functional; conditions: read-out: GI
PC-3 = assay: Antiproliferative activity against human PC-3 cells assessed as cell growth inhibition at 10 uM incubated for 24 hrs by sulforhodamine B assay; type: functional; conditions: read-out: GI
SNB-75 = assay: Antiproliferative activity against human SNB-75 cells assessed as cell growth inhibition at 10 uM incubated for 24 hrs by sulforhodamine B assay; type: functional; conditions: read-out: GI
T47D [5] = assay: Antiproliferative activity against human T47D cells assessed as cell growth inhibition at 10 uM incubated for 24 hrs by sulforhodamine B assay; type: functional; conditions: read-out: GI
RXF 393 = assay: Antiproliferative activity against human RXF 393 cells assessed as cell growth inhibition at 10 uM incubated for 24 hrs by sulforhodamine B assay; type: functional; conditions: read-out: GI
SNB-19 = assay: Antiproliferative activity against human SNB-19 cells assessed as cell growth inhibition at 10 uM incubated for 24 hrs by sulforhodamine B assay; type: functional; conditions: read-out: GI
MDA-MB-468 = assay: Antiproliferative activity against human MDA-MB-468 cells assessed as cell growth inhibition at 10 uM incubated for 24 hrs by sulforhodamine B assay; type: functional; conditions: read-out: GI
MCF7 [6] = assay: Antiproliferative activity against human MCF7 cells assessed as cell growth inhibition at 10 uM incubated for 24 hrs by sulforhodamine B assay; type: functional; conditions: read-out: GI
HOP-92 = assay: Antiproliferative activity against human HOP-92 cells assessed as cell growth inhibition at 10 uM incubated for 24 hrs by sulforhodamine B assay; type: functional; conditions: read-out: GI
ACHN = assay: Antiproliferative activity against human ACHN cells assessed as cell growth inhibition at 10 uM incubated for 24 hrs by sulforhodamine B assay; type: functional; conditions: read-out: GI
HL-60 = assay: Antiproliferative activity against human HL-60 cells assessed as cell growth inhibition at 10 uM incubated for 24 hrs by sulforhodamine B assay; type: functional; conditions: read-out: GI
NCI-H23 = assay: Antiproliferative activity against human NCI-H23 cells assessed as cell growth inhibition at 10 uM incubated for 24 hrs by sulforhodamine B assay; type: functional; conditions: read-out: GI
DU-145 = assay: Antiproliferative activity against human DU-145 cells assessed as cell growth inhibition at 10 uM incubated for 24 hrs by sulforhodamine B assay; type: functional; conditions: read-out: GI
LOX IMVI = assay: Antiproliferative activity against human LOX IMVI cells assessed as cell growth inhibition at 10 uM incubated for 24 hrs by sulforhodamine B assay; type: functional; conditions: read-out: GI
Hs-578T = assay: Antiproliferative activity against human HS-578T cells assessed as cell growth inhibition at 10 uM incubated for 24 hrs by sulforhodamine B assay; type: functional; conditions: read-out: GI

| SMILES | inhibition of growth at 10 µM (CAKI-1) [%] | pIC50 (MDA-MB-231 [2]) | inhibition of growth at 10 µM (SR) [%] | pKi (Carbonic anhydrase 9) | inhibition of growth at 10 µM (UO-31) [%] | inhibition of growth at 10 µM (SF-539) [%] | inhibition of growth at 10 µM (K562) [%] | inhibition of growth at 10 µM (NCI-H522) [%] | pIC50 (T47D [3]) | pIC50 (MCF7 [4]) | inhibition of growth at 10 µM (UACC-62) [%] | inhibition of growth at 10 µM (HCT-15) [%] | pKi (Carbonic anhydrase 2) | other results |
| --- | --- | --- | --- | --- | --- | --- | --- | --- | --- | --- | --- | --- | --- | --- |
| COc1ccc(C(=O)CSc2nc(Nc3ccc(S(N)(=O)=O)cc3)c(C#N)c(C(C)C)n2)cc1 | 5 | 4.30 | 11.7 | 7.04 | 16.5 | 5.08 | 10.9 | 5.22 | 4.22 | 4.70 | 8.47 |  |  | inhibition of growth at 10 µM (MDA-MB-231 [1]): 5.52%; inhibition of growth at 10 µM (NCI-H226): 7.41% |
| NS(=O)(=O)c1cccc(Nc2cc(-c3ccccc3)nc(SCC(=O)c3ccc(Br)cc3)n2)c1 |  |  |  | 6.28 |  |  |  |  |  |  |  |  |  |  |
| COc1ccc(C(=O)CSc2nc(Nc3cccc(S(N)(=O)=O)c3)cc(-c3ccccc3)n2)cc1 | 7.16 | 4.37 | 23.7 | 6.52 | 16.4 |  | 12.7 | 6.62 | 4.55 | 4.51 | 8.31 | 13.8 | < 4.70 | inhibition of growth at 10 µM (MDA-MB-231 [1]): 6.45%; pKi (Carbonic anhydrase 1): < 4.70; inhibition of growth at 10 µM (A549): 7.98%; inhibition of growth at 10 µM (RPMI-8226): 6.7%; inhibition of growth at 10 µM (Malme-3M): 7.42%; inhibition of growth at 10 µM (U-251): 6.41%; inhibition of growth at 10 µM (OVCAR-4): 12.2%; inhibition of growth at 10 µM (MOLT-4): 26.2%; inhibition of growth at 10 µM (KM12): 6.88%; inhibition of growth at 10 µM (CCRF-CEM): 16.9%; inhibition of growth at 10 µM (PC-3): 15.8%; inhibition of growth at 10 µM (SNB-75): 12.3%; inhibition of growth at 10 µM (T47D [5]): 20.2% |
| NS(=O)(=O)c1cccc(Nc2cc(-c3ccccc3)nc(SCC(=O)c3ccccc3)n2)c1 |  |  |  | 6.14 |  |  |  |  |  |  |  |  |  |  |
| COc1ccc(C(=O)CSc2nc(Nc3cccc(S(N)(=O)=O)c3)c(C#N)c(C(C)C)n2)cc1 | 10.8 |  | 11 | 7.02 | 20.4 | 7.32 | 18.5 | 6.43 |  |  | 11.6 | 6.79 | < 4.70 | inhibition of growth at 10 µM (RXF 393): 10.2%; inhibition of growth at 10 µM (SNB-19): 5.74%; inhibition of growth at 10 µM (MDA-MB-468): 8.74%; inhibition of growth at 10 µM (RPMI-8226): 5.91%; inhibition of growth at 10 µM (MCF7 [6]): 12.9%; inhibition of growth at 10 µM (HOP-92): 11.6%; inhibition of growth at 10 µM (MOLT-4): 13.4%; inhibition of growth at 10 µM (ACHN): 6.14%; inhibition of growth at 10 µM (CCRF-CEM): 6.87%; inhibition of growth at 10 µM (PC-3): 7.35%; inhibition of growth at 10 µM (T47D [5]): 14.2%; inhibition of growth at 10 µM (HL-60): 6.4%; inhibition of growth at 10 µM (NCI-H23): 11% |
| Cc1ccc(-c2nc(SCC(=O)c3ccc(Br)cc3)nc(Nc3ccc(S(N)(=O)=O)cc3)c2C#N)cc1 | 13.7 |  | 11.4 | 5.06 | 22.4 | 17.1 | 8 |  |  |  |  | 11.3 | < 4.70 | inhibition of growth at 10 µM (DU-145): 47.5%; pKi (Carbonic anhydrase 1): < 4.70; inhibition of growth at 10 µM (MCF7 [6]): 16.5%; inhibition of growth at 10 µM (LOX IMVI): 11.8%; inhibition of growth at 10 µM (Malme-3M): 8.67%; inhibition of growth at 10 µM (HOP-92): 40.4%; inhibition of growth at 10 µM (Hs-578T): 14.3%; inhibition of growth at 10 µM (HL-60): < 5%; inhibition of growth at 10 µM (NCI-H23): 6.49% |
| COc1ccc(OC)c(-c2nc(SCC(=O)c3ccccc3)nc(Nc3cccc(S(N)(=O)=O)c3)c2C#N)c1 |  |  |  | 5.30 |  |  |  |  |  |  |  |  | < 4.70 |  |
| O=c1[nH]cc(F)c(=O)[nH]1 [FLUOROURACIL] |  | 5.46 |  |  |  |  |  |  | 5.17 | 5.61 |  |  |  |  |
